In patent US20200378950A1, “Glycosylation site-specific antibodies and anti-cancer compounds” (Detroit R & D, Inc., priority 2019, published 2020):

How the values were obtained:
[1] = test system: O-GlcNAcylated c-myc in MCF-7 cells; assay: Western blot of O-GlcNAcylated c-myc levels in treated MCF-7 cells; assay type: cell-based; conditions: MCF-7, 24 hr treatment, 2 mM, nuclear lysates
Description: MCF-7 cells were grown in MEM/EBSS media (Hyclone, Logan, Utah) supplemented with 10% fetal bovine serum and 0.01 mg/mL insulin. MCF-10A cells were grown in DMEM/F12 media (Hyclone) supplemented with 5% horse serum, […], […], 20 ng/mL EGF, […], 100 units/mL penicillin-streptomycin and 2 mM glutamine. The glucose concentration of MEM/EBSS and DMEM/F12 media are 6 mM and 18 mM, respectively. Cells were maintained in humidified atmosphere with 95% air and 5% CO2 at 37° C.
MCF-7 breast cancer cells were treated for 24 hr with 1% DMSO, with an O-GlcNAcase inhibitor, streptozotocin (STZ), with N^6-methyladenosine 5′-monophosphate [an O-GlcNAcase inhibitor discovered through by screening with the pseudofluorescent substrate 4-methylumbelliferol (4-MU)-GlcNAc (7)] or with media (control) (FIG. 5).
O-GlcNAcase inhibitors, which increased O-GlcNAcylation levels of proteins by preventing cleavage of an O-GlcNAc moiety of Ser or Thr residues, were identified using the antibodies of the present invention. […]
MCF-7 cells were treated for 4 hr with 1% DMSO (negative control) or 2 mM ketoconazole in DMSO and an O-GlcNAcylated c-myc band was detected using a second antibody for O-GlcNAcylated c-myc (Peptide #1-G).

[2] = test system: O-GlcNAcylated p53 in MCF-7 cells; assay: Western blot of O-GlcNAcylated p53 levels in treated MCF-7 cells; assay type: cell-based; conditions: MCF-7, 24 hr, 2 mM, cytosol-containing supernatants
Description: MCF-7 cells were grown in MEM/EBSS media (Hyclone, Logan, Utah) supplemented with 10% fetal bovine serum and 0.01 mg/mL insulin. […] The glucose concentration of MEM/EBSS and DMEM/F12 media are 6 mM and 18 mM, respectively. Cells were maintained in humidified atmosphere with 95% air and 5% CO2 at 37° C.
MCF-7 cells were grown for 24 hr with treatment of 1% DMSO (negative control) or 2 mM STZ or acetazolamide dissolved in DMSO or 2 mM N^6-methyladenosine 5′-monophosphate dissolved in media. The cells were harvested and cytosol-containing supernatants were obtained.

[3] = test system: unmodified c-myc in MCF-7 cells; assay: Western blot of unmodified c-myc protein in treated MCF-7 cells; assay type: cell-based; conditions: MCF-7, 4 hr, 2 mM, Peptide #2-N antibody
Description: Western blot analysis was carried out with 10% gel electrophoresis using nuclear lysates obtained from MCF-7 cells with antibodies for O-GlcNAcylated c-myc (Peptide #2-G). […] There was no increase in unmodified c-myc protein after ketoconazole treatment as verified with antibodies for unmodified c-myc (Peptide #2-N) by Western blot analysis.

MCF-7 and MCF10A cells = assay: Lactate dehydrogenase (LDH) cytotoxicity assay, MCF-7 compared with MCF10A; assay type: cell-based; conditions: 2 mM, 4 hr
Description: Increased O-GlcNAcylated c-myc levels in MCF-7 cells induced cell death. MCF-7 tumor cell death after 2 mM ketoconazole treatment was compared with MCF10A normal cell death by LDH cytotoxicity assay. After treatment of cells for 4 hr, extracellular media and Triton X-100 solubilized cells were obtained and oxidation of NADH to NAD+ in both fractions was monitored for 2 min at a 340 nm to obtain total (media+cells) LDH release.

[4] = test system: MCF-7 breast cancer cells; assay: Cell proliferation, MCF-7; assay type: cell-based
Description: Cell proliferation assays were carried out after seeding 3,000-5,000 cells in a 96-well plate with and without treatment of 50 μM ketoconazole dissolved in DMSO (final concentration, 1%) for 72 hr (FIG. 8, Panel A). The cell number was counted after staining the cells with 3-(4,5-dimethylthiazol-2-yl)2,5-diphenyl-tetrazolium bromide (MTT).

[5] = test system: MCF10CA1A breast cancer cells; assay: QCM ECMatrix cell invasion assay, MCF10CA1A; assay type: cell-based; conditions: MCF-10CA1A, 100 μM for 72 hr
Description: Cell invasiveness of SW480 and HT29 human colon adenocarcinoma cells and MCF10CA1A breast cancer cells with and without 72 hr treatment with 100 μM ketoconazole was studied in 24-well plates using the QCM ECMatrix cell invasion assay kit (EMD Millipore).

[6] = test system: Mia Paca-2 pancreatic cancer cells; assay: Wound healing (cell migration) assay, Mia Paca-2; assay type: cell-based; conditions: Mia Paca-2, 100 μM
Description: (§1) Wound healing assays were also carried out to verify inhibition of cell migration after ketoconazole treatment.
(§2) Wound healing assays to measure inhibition of cell migration toward scratched area with and without treatment of 100 μM ketoconazole dissolved in DMSO (final concentration, 1%). Percent of cells migrated toward a scratched field are shown. […] Percent of cells migrated toward a scratched field are shown.

[7] = test system: PANC1 pancreatic cancer cells; assay: Wound healing (cell migration) assay, PANC1; assay type: cell-based; conditions: PANC1, 100 μM
Description: as §1, §2

SW480 colon cancer cells = assay: Wound healing (cell migration) assay, SW480; assay type: cell-based, human; conditions: SW480, 100 μM
Description: as §2

HT29 colon cancer cells = assay: Wound healing (cell migration) assay, HT29; assay type: cell-based, human; conditions: HT29, 100 μM
Description: as §2

Structure (SMILES) | O-GlcNAcylated c-myc levels [1] | Levels of O-GlcNAcylated p53 [2] | unmodified c-myc protein level [3] | cell death in MCF-7 cells higher than in MCF10A cells (LDH release) (MCF-7 and MCF10A cells) | inhibition of cell proliferation [4] | inhibition of migration in cell invasion assay [5] | % cells migrated ([6]; 0 hr) | % cells migrated ([6]; 24 hr) | % cells migrated ([6]; 24 hr, listed as Ketoconazole) | % cells migrated ([6]; 48 hr) | % cells migrated ([7]; 0 hr) | % cells migrated ([7]; 24 hr) | % cells migrated ([7]; 48 hr) | inhibition of cell migration ([7]; wound healing) | Percent of cells migrated (SW480 colon cancer cells; 0 hr) | inhibition of cell migration (SW480 colon cancer cells; 24 hours) | Percent of cells migrated (SW480 colon cancer cells; 24 hr) | Percent of cells migrated (HT29 colon cancer cells; 0 hr) | inhibition of cell migration (HT29 colon cancer cells; 24 hours) | Percent of cells migrated (HT29 colon cancer cells; 24 hr)
CC(=O)Nc1nnc(S(N)(=O)=O)s1 [acetazolamide] | did not increase | potent inducer |  |  |  |  |  |  |  |  |  |  |  |  |  |  |  |  |  | 
CC(=O)N1CCN(c2ccc(OCC3COC(Cn4ccnc4)(c4ccc(Cl)cc4Cl)O3)cc2)CC1 (centres unmarked) [ketoconazole] |  |  | no increase | 84% | inhibited the proliferation | partially inhibited | 0% | 11.6% | 10% | 12% | 0% | 6% | 11% | failed to inhibit | 0 | slightly inhibited | 27 | 0 | slightly inhibited | 8
